Measured values published in the supplement of paper PMC10307832.

What was measured:
Assay in all cases: relative viability (nuclei count vs DMSO), 5 days (fraction); higher = more cells survive
EMC-BAC-2 = system: EMC-BAC-2
Procedure, shortened: (§1)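 Lung cancer cell lines were seeded in 1536-well plates and dosed by pin tool the next day, with either a single drug or a fixed anchor-drug dose combined with five library-drug doses (not always all listed) spaced in √10 steps. Five days later, one step fixed the cells and stained their nuclei (final 0.05% Triton X-100, 1% formaldehyde, 1 ug/ml Hoechst), and nuclei were counted on 4× images. Relative viability is the nuclei count in treated wells divided by the count in vehicle wells, and each value is the median of duplicate plates.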

HOP-62 = system: HOP-62
Procedure, shortened: as §1

NCI-H1975 = system: NCI-H1975
Procedure, shortened: as §1

NCI-H322M = system: NCI-H322M
Procedure, shortened: as §1

HCC-78 = system: HCC-78
Procedure, shortened: as §1

NCI-H2085 = system: NCI-H2085
Procedure, shortened: as §1

LXF-289 = system: LXF-289
Procedure, shortened: as §1

HCC-15 = system: HCC-15
Procedure, shortened: as §1

NCI-H522 = system: NCI-H522
Procedure, shortened: as §1

NCI-H2126 = system: NCI-H2126
Procedure, shortened: as §1

NCI-H1755 = system: NCI-H1755
Procedure, shortened: as §1

UMC-11 = system: UMC-11
Procedure, shortened: as §1

SMILES: C[C@@H]1CN(CC(=O)Nc2ccc3c(c2)Cc2cccc(-c4cc(=O)cc(N5CCOCC5)o4)c2S3)C[C@H](C)O1 + Cc1cc(Nc2cc(N3CCN(C)CC3)nc(Sc3ccc(NC(=O)C4CC4)cc3)n2)n[nH]1 [Tozasertib] (partner 0.1 µM)
- relative viability (EMC-BAC-2; first compound 0.04 µM): 0.257
- relative viability (EMC-BAC-2; first compound 0.1265 µM): 0.29
- relative viability (EMC-BAC-2; first compound 0.4 µM): 0.294
- relative viability (EMC-BAC-2; first compound 4 µM): 0.264
- relative viability (HOP-62; first compound 0.04 µM): 0.378
- relative viability (HOP-62; first compound 0.1265 µM): 0.365
- relative viability (HOP-62; first compound 0.4 µM): 0.35
- relative viability (HOP-62; first compound 4 µM): 0.346
- relative viability (NCI-H1975; first compound 0.04 µM): 0.781
- relative viability (NCI-H1975; first compound 0.1265 µM): 0.675
- relative viability (NCI-H1975; first compound 0.4 µM): 0.611
- relative viability (NCI-H1975; first compound 4 µM): 0.193
- relative viability (NCI-H322M; first compound 0.04 µM): 0.489
- relative viability (NCI-H322M; first compound 0.1265 µM): 0.486
- relative viability (NCI-H322M; first compound 0.4 µM): 0.449
- relative viability (NCI-H322M; first compound 4 µM): 0.432
- relative viability (HCC-78; first compound 0.04 µM): 0.397
- relative viability (HCC-78; first compound 0.1265 µM): 0.386
- relative viability (HCC-78; first compound 0.4 µM): 0.361
- relative viability (HCC-78; first compound 4 µM): 0.318
- relative viability (NCI-H2085; first compound 0.04 µM): 0.85
- relative viability (NCI-H2085; first compound 0.1265 µM): 0.827
- relative viability (NCI-H2085; first compound 0.4 µM): 0.739
- relative viability (NCI-H2085; first compound 4 µM): 0.551
- relative viability (LXF-289; first compound 0.04 µM): 0.193
- relative viability (LXF-289; first compound 0.1265 µM): 0.212
- relative viability (LXF-289; first compound 0.4 µM): 0.246
- relative viability (LXF-289; first compound 4 µM): 0.191
- relative viability (HCC-15; first compound 0.04 µM): 0.334
- relative viability (HCC-15; first compound 0.1265 µM): 0.372
- relative viability (HCC-15; first compound 0.4 µM): 0.385
- relative viability (HCC-15; first compound 4 µM): 0.151
- relative viability (NCI-H522; first compound 0.04 µM): 0.542
- relative viability (NCI-H522; first compound 0.1265 µM): 0.56
- relative viability (NCI-H522; first compound 0.4 µM): 0.583
- relative viability (NCI-H522; first compound 4 µM): 0.557
- relative viability (NCI-H2126; first compound 0.04 µM): 0.898
- relative viability (NCI-H2126; first compound 0.1265 µM): 0.83
- relative viability (NCI-H2126; first compound 0.4 µM): 0.793
- relative viability (NCI-H2126; first compound 4 µM): 0.699
- relative viability (NCI-H1755; first compound 0.04 µM): 0.603
- relative viability (NCI-H1755; first compound 0.1265 µM): 0.582
- relative viability (NCI-H1755; first compound 0.4 µM): 0.595
- relative viability (NCI-H1755; first compound 4 µM): 0.466
- relative viability (UMC-11; first compound 0.04 µM): 0.208
- relative viability (UMC-11; first compound 0.1265 µM): 0.198
- relative viability (UMC-11; first compound 0.4 µM): 0.19
